Source: patent US9925398B2, “Angiogenic peptide” (NOVACELL TECHNOLOGY INC., priority 2008, dated 2018)
Where a SMILES comes first, the peptide text is derived from it. [ ]: non-standard residue; d: D form.

Each molecule was assayed on Rat aortic explants (assay: Aortic ring assay (vessel sprouting ex vivo)). Conditions: 50 ng/mL co-treatment with SFKLRY-NH2 1 μM; 7 days.
Format: cell-based
Method: The method developed by Nicosia and Ottinetti in In Vitro Cell Dev Biol 26 (1990), pp. 119-128 was used with some modifications. Aortas were harvested from 6-week-old Sprague-Dawley rats. After removing the surrounding fibro-adipose tissues, the rings were immersed in Matrigel in wells within culture dishes. The aortic rings were cultured (5% CO2, 37° C.) in serum-free M199 containing SFKLRY-NH2 (SEQ ID NO: 2), S1P, FYSRLK-NH2, or VEGF in the presence or absence of PTX or U73122. On day 7, sprouting from aortic explants was measured.
To address whether SFKLRY-NH2 (SEQ ID NO: 2) plays a role in sprouting of vascular endothelial cells ex vivo, aortic rings were analyzed in the presence of various stimuli including 1 μM SFKLRY-NH2 (SEQ ID NO: 2), 10 ng/mL VEGF, 10 nM S1P, and 10% FBS. […] Rat aortic explants in Matrigel were incubated with M-199 harboring SFKLRY-NH2 (SEQ ID NO: 2) (1 μM), FYSRLK-NH2 (1 μM), S1P (10 nM), VEGF (10 ng/mL), SFKLRY-NH2 (SEQ ID NO: 2) (1 μM) with U73122 (10 μM) or PTX (50 ng/mL), or 10% FBS and photographed after incubation for 7 days. Three independent experiments were then conducted, each in duplicate.

Molecule | effect on vessel sprouting promoted by SFKLRY-NH2
Pertussis toxin [PTX] | markedly attenuated

Same assay, conditions: 10 μM co-treatment with SFKLRY-NH2 1 μM; 7 days

Molecule | effect on vessel sprouting promoted by SFKLRY-NH2
COc1ccc2c(c1)CC[C@@H]1[C@@H]2CC[C@]2(C)[C@@H](NCCCCCCN3C(=O)C=CC3=O)CC[C@@H]12 [U73122] | markedly attenuated

What follows are molecules tested on MS-1 cells (assay: Suppression of SFKLRY-NH2-induced [Ca2+]i increase in MS-1 cells by inhibitors). Conditions: 100 ng/mL for 2 h prior to SFKLRY-NH2.
Format: cell-based, murine
Method: FIGS. 3A-3B show BAPTA, U73122 and PTX suppressed SFKLRY-NH2-induced [Ca^2+]i increase in MS-1 cells. […] (A) The cells were pre-incubated in DMEM containing 10 μM BAPTA-AM with Fluo-4/AM for 30 min at 37° C. Cells were suspended in Ca^2+-free Locke's solution containing 0.2 mM EGTA and treated with indicated concentrations of SFKLRY-NH2 (SEQ ID NO: 2). The change in fluorescence intensity was determined with excitation at 488 nm and the emission at 520 nm. (B) Cells were preincubated with or without U73122 (10 μM), U73433 (10 μM) for 30 min, and PTX (100 ng/mL) for 2 h with Fura-2, respectively. Fura-2-loaded cells were then suspended in Ca^2+-free Locke's solution and then treated with 1 μM SFKLRY-NH2 (SEQ ID NO: 2). The data are represent means±3 independent experiments each performed in triplicate. *P<0.05.

Molecule | effect on peptide-dependent intracellular Ca2+ mobilization
Pertussis toxin [PTX] | remarkably attenuated

Same assay, conditions: 10 μM preloading; Ca2+-free Locke's solution with 0.2 mM EGTA

Molecule | effect on peptide-induced [Ca2+]i increase
CC(=O)OCOC(=O)CN(CC(=O)OCOC(C)=O)c1ccccc1OCCOc1ccccc1N(CC(=O)OCOC(C)=O)CC(=O)OCOC(C)=O [BAPTA-AM, 1,2-bis(2-aminophenoxy)ethane-N,N,N′,N′-tetraacetoxymethyl ester] | completely abolished

Same assay, conditions: 10 μM, 30 min preincubation; 1 μM SFKLRY-NH2

Molecule | effect on peptide-induced intracellular calcium mobilization
COc1ccc2c(c1)CC[C@@H]1[C@@H]2CC[C@]2(C)[C@@H](NCCCCCCN3C(=O)CCC3=O)CC[C@@H]12 [U73433] | little inhibitory effect
COc1ccc2c(c1)CC[C@@H]1[C@@H]2CC[C@]2(C)[C@@H](NCCCCCCN3C(=O)C=CC3=O)CC[C@@H]12 [U73122] | completely abolished

Each molecule was assayed on MS-1 cells (assay: [Ca2+]i mobilization assay in MS-1 cells). Conditions: three experiments, read-out: Mean EC50 (μM), dose-dependent changes in intracellular Ca2+.
Format: cell-based, murine
Method: Cells were incubated with 4 μM Fura-2 AM and 250 μM sulfinpyrazone in serum-free DMEM medium at 37° C. for 30 min with continuous stirring. The cells were then washed with Locke's solution (M. Faehling, et al., FASEB J 16 (2002), pp. 1805-1807) and diluted to 2×10^6 cells/mL. 50 μL aliquots of cell suspension were added to each well of a 96-well plate, and the change in fluorescence ratio was determined at dual excitation wavelengths of 340 and 380 nm and emission wavelength of 500 nm following addition of peptides. Plates were read immediately following the addition of peptide pools, resulting in a time delay of approximately 5 s between peptide addition and detection by the FLEXstation (Molecular Devices). Negative and positive controls were run simultaneously with test samples to ensure that all samples were subjected to identical conditions. The calibration of the fluorescence ratio in terms of [Ca^2+]i was performed according to Grynkiewicz et al. J Biol Chem 260 (1985), pp. 3440-3450.
To identify peptides that stimulate intracellular calcium mobilization in murine endothelial cells (MS-1 cells), the inventors screened 114 pools of C-terminally amidated synthetic hexapeptides.

Molecule | EC50 [µM]
CC(C)C[C@H](NC(=O)[C@H](CCCCN)NC(=O)[C@H](Cc1ccccc1)NC(=O)[C@@H](N)CO)C(=O)N[C@@H](CCCNC(=N)N)C(N)=O [SEQ ID NO 12, SFKLR-NH2] (H-SFKLR-NH2; N-terminus assumed) | 6.19
CC(C)C[C@H](NC(=O)[C@H](CCCCN)NC(=O)[C@H](Cc1ccccc1)NC(=O)[C@@H](N)[C@@H](C)O)C(=O)N[C@@H](CCCNC(=N)N)C(=O)N[C@@H](Cc1ccc(O)cc1)C(N)=O [SEQ ID NO 24, TFKLRY-NH2] (H-TFKLRY-NH2; N-terminus assumed) | 3.87
CC(C)C[C@H](NC(=O)[C@H](CCCCN)NC(=O)[C@H](Cc1ccccc1)NC(=O)[C@@H](N)CO)C(N)=O [SEQ ID NO 13, SFKL-NH2] (H-SFKL-NH2; N-terminus assumed) | > 50
CC(C)C[C@H](NC(=O)[C@H](CCCNC(=N)N)NC(=O)[C@H](Cc1ccccc1)NC(=O)[C@@H](N)CO)C(=O)N[C@@H](CCCNC(=N)N)C(=O)N[C@@H](Cc1ccc(O)cc1)C(N)=O [SEQ ID NO 15, SFRLRY-NH2] (H-SFRLRY-NH2; N-terminus assumed) | 0.97
CC[C@H](C)[C@H](NC(=O)[C@H](Cc1ccccc1)NC(=O)[C@@H](N)CO)C(=O)N[C@@H](CC(C)C)C(=O)N[C@@H](CCCNC(=N)N)C(=O)N[C@@H](Cc1ccccc1)C(N)=O [SEQ ID NO 22, SFILRF-NH2] (H-SFILRF-NH2; N-terminus assumed) | 2.01
CC(C)C[C@H](NC(=O)[C@H](CCCCN)NC(=O)[C@H](Cc1ccccc1)NC(=O)[C@@H](N)CO)C(=O)N[C@@H](CCCNC(=N)N)C(=O)N[C@@H](Cc1ccccc1)C(N)=O [SEQ ID NO 21, SFKLRF-NH2] (H-SFKLRF-NH2; N-terminus assumed) | 3.16
CC(C)C[C@H](NC(=O)[C@H](CCCCN)NC(=O)[C@H](Cc1ccccc1)NC(=O)[C@@H](N)CO)C(=O)N[C@H](CCCNC(=N)N)C(=O)N[C@@H](Cc1ccc(O)cc1)C(N)=O [SEQ ID NO 7, SFKLrY-NH2(d-form)] (H-SFKL[dR]Y-NH2; N-terminus assumed) | > 100
CC(C)C[C@H](NC(=O)[C@H](CCCCN)NC(=O)[C@H](Cc1ccccc1)NC(=O)[C@@H](N)CO)C(=O)N[C@@H](CCCNC(=N)N)C(=O)N[C@H](Cc1ccc(O)cc1)C(N)=O [SEQ ID NO 8, SFKLRy-NH2(d-form)] (H-SFKLR[dY]-NH2; N-terminus assumed) | 1.14
CC[C@H](C)[C@H](NC(=O)[C@H](Cc1ccccc1)NC(=O)[C@@H](N)CO)C(=O)N[C@@H](CC(C)C)C(=O)N[C@@H](CCCNC(=N)N)C(=O)N[C@@H](Cc1ccc(O)cc1)C(N)=O [SEQ ID NO 17, SFILRY-NH2] (H-SFILRY-NH2; N-terminus assumed) | 0.99
CC[C@H](C)[C@H](NC(=O)[C@H](Cc1ccccc1)NC(=O)[C@@H](N)CO)C(=O)N[C@@H](CC(C)C)C(=O)N[C@@H](CCCNC(=N)N)C(=O)N[C@@H](Cc1c[nH]c2ccccc12)C(N)=O [SEQ ID NO 20, SFILRW-NH2] (H-SFILRW-NH2; N-terminus assumed) | 1.98
CC(C)C[C@H](NC(=O)[C@H](CCCCN)NC(=O)[C@H](Cc1ccccc1)NC(=O)[C@@H](N)CO)C(=O)N[C@@H](CCCNC(=N)N)C(=O)N[C@@H](Cc1c[nH]cn1)C(N)=O [SEQ ID NO 23, SFKLRH-NH2] (H-SFKLRH-NH2; N-terminus assumed) | 3.6
CC(C)C[C@H](NC(=O)[C@H](CCCCN)NC(=O)[C@H](Cc1ccccc1)NC(=O)[C@@H](N)CO)C(=O)N[C@@H](CCCNC(=N)N)C(=O)N[C@@H](Cc1ccc(O)cc1)C(=O)O [SEQ ID NO 1, SFKLRY-COOH] (H-SFKLRY-OH; N-terminus assumed) | > 10
CC(C)C[C@H](NC(=O)[C@H](CCCCN)NC(=O)[C@H](Cc1ccccc1)NC(=O)[C@@H](N)CO)C(=O)N[C@@H](CCCNC(=N)N)C(=O)N[C@@H](CCCNC(=N)N)C(N)=O [SEQ ID NO 16, SFKLRR-NH2] (H-SFKLRR-NH2; N-terminus assumed) | 2.66
CC[C@H](C)[C@H](NC(=O)[C@H](Cc1ccccc1)NC(=O)[C@@H](N)CO)C(=O)N[C@@H](CC(C)C)C(=O)N[C@@H](CCCNC(=N)N)C(=O)N[C@@H](CCCNC(=N)N)C(N)=O [SEQ ID NO 18, SFILRR-NH2] (H-SFILRR-NH2; N-terminus assumed) | 0.97
CC(C)C[C@H](NC(=O)[C@H](CCCCN)NC(=O)[C@H](Cc1ccccc1)NC(=O)[C@@H](N)CO)C(=O)N[C@@H](CCCNC(=N)N)C(=O)N[C@@H](Cc1c[nH]c2ccccc12)C(N)=O [SEQ ID NO 19, SFKLRW-NH2] (H-SFKLRW-NH2; N-terminus assumed) | 2.37
CC(C)C[C@H](NC(=O)[C@H](CCCCN)NC(=O)[C@H](Cc1ccccc1)NC(=O)[C@@H](N)CO)C(=O)N[C@@H](CCCNC(=N)N)C(=O)N[C@@H](Cc1ccc(O)cc1)C(N)=O [SEQ ID NO 2, SFKLRY-NH2] (H-SFKLRY-NH2; N-terminus assumed) | 1.21
